Assay results reported in patent US7867496B2, “Use of TGF-β antagonists to limit nephrotoxicity of immunosuppressive agents” (Genzyme Corporation, priority 2004, dated 2011).
“Also recorded” adds a separate entry of the source.

Legend:
renal transplant = renal transplant histology, TAC study; assay type: in vivo, rat; settings: TAC alone compared to isografts; monohydrate
Source text: A portion of transplanted kidneys from each animal was fixed with formalin and imbedded in paraffin. Hematoxylin and eosin (H&E) and periodic acid schiff (PAS) stainings were used to assess histological changes. Renal histological changes we quantified by standard procedures. The severity of the glomerular injury was scored as described in Khanna et al. (2000) Transplantation, 73:1543-1549. Briefly, in each field, at least 50-60 glomeruli were counted for each specimen and lesions were scored on a five-point scale (0, no proliferation, almost normal histology; 1, about 25% segmental lesion; 2, segmental lesion of greater than 25% but less than 50%; 3, fibrotic lesions with diffuse proliferation; 4, almost completely fibrotic changes). PAS staining was used to determine the extent of extracellular matrix protein accumulation (not scored). Interlobular arteries in H&E-stained slides and lesions were scored.
The slides were mounted with Permount™ for evaluation. Samples from each group were graded for histopathological changes and immunohistochemical staining. The intensity of immunostaining was graded from 0 (no staining) to 4+ (maximum staining). […]
The effect of TAC, TAC+a control antibody and TAC+anti-TGF-β antibody treatment on morphological changes was assessed by histopathological examination in H&E- and PAS-stained thin kidney sections were evaluated.

TGF-β protein = experiment: intrarenal TGF-β protein immunohistochemistry, TAC study; assay type: in vivo, rat; settings: TAC alone
Description: Plasma levels of TGF-β protein were measured as described in Khanna et al. (1999) Transplantation, 67:882-889. Intrarenal protein expression of TGF-β was examined immunohistochemically as essentially as described in Khanna et al. (2000) Transplantation, 73:1543-1549; Khanna et al. (2002) Kidney Intl., 62:2257-63; and Khanna et al. (1999) Transplantation, 67:614-619. Formalin-fixed paraffin-embedded tissues were sliced into fine sections, deparaffinized in xylene and rehydrated in graded ethanol to phosphate-buffered saline (PBS). After blocking endogenous peroxidase activity for 30 minutes with methanol/H2O2 (18:1 vol/vol), nonspecific binding was blocked for 1 hour with 1.5% avidin/biotin diluted in PBS supplemented with 10% normal horse serum and 3% BSA. Tissue sections were incubated overnight at 4° C. with specific primary antibodies (50 μg/ml) in above-mentioned PBS. Following extensive washing in PBS, slides were incubated at room temperature for 1 hour with diluted (1:1,000) biotin-labeled anti-mouse IgG horse anti-serum and washed again extensively in PBS and then in the ABC solution for 30 minutes. The slides were developed for 10 minutes in diaminobenzidine (DAB) and rinsed in water for 10 minutes. The slides were then counterstained with hematoxylin and dehydrated in graded ethanol and xylene.
The slides were mounted with Permount™ for evaluation. […]

SOD mRNA = experiment: intrarenal SOD mRNA by real-time PCR, TAC study; assay type: in vivo, rat; settings: TAC alone compared to isograft controls
Description: (§1) TAC was administered at 0.25 mg/kg i.m. for 90 days; and the anti-TGF-β antibody, 1D11, was administered at 1 mg/kg twice a week. The control antibody used was 13C4.
(§2) RT-PCR was performed using a Bio-Rad iCycler™ system (Bio-Rad, Hercules, Calif.). RNAs were isolated from renal tissues using a kit from Promega (Madison, […].) and reverse-transcribed into cDNAs by using a cDNA synthesis kit from Invitrogen (Carlsbad, Calif.). The specificity of primers was tested by running a regular PCR for 40 cycles at 95° C. for 20 seconds and 60° C. for 1 minute, followed by separating in ethidium bromide containing agarose gels. The real-time PCR was performed using a SYBR Supermix kit (Bio-RAD) (40 cycles at 95° C. for 20 s and 60° C. for 1 minute). The PCR efficiency was examined by serially diluting template cDNA. The melting curve data was collected to check the PCR specificity and proper negative controls were included in each assay. The mRNA level for each gene for each sample was normalized to β-actin mRNA and presented as 2-[(Ct/β-actin-Ct/gene of interest)] as described in Khanna et al. (2005) Nephron Exp. Nephrol., 101:119-126.
(§3) To further examine the effect of prolonged treatment with TAC on antioxidant genes, intrarenal mRNA expression of SOD and TRX was determined.

TGF-β mRNA = experiment: intrarenal TGF-β mRNA by real-time PCR, TAC study; assay type: in vivo, rat; settings: TAC alone, 90 days post transplantation, with respect to isograft controls
Description: as §1, §2
(§4) Intrarenal expression of TGF-β, NOX-1 and p22phox was analyzed by RT-PCR in renal tissues from (1) isografts, (2) TAC, (3) TAC+anti-TGF-β antibody, and (3) TAC+control antibody treated animals at 90 days post transplantation. […]

RAC-1 mRNA = experiment: intrarenal RAC-1 mRNA by real-time PCR, TAC study; assay type: in vivo, rat; settings: TAC alone, 90 days, with respect to isograft controls
Description: as §1, §2, §4

TRX mRNA = experiment: intrarenal TRX mRNA by real-time PCR, TAC study; assay type: in vivo, rat; settings: TAC alone compared to isograft controls
Description: as §1, §2, §3

p22phox mRNA = experiment: intrarenal p22phox mRNA by real-time PCR, TAC study; assay type: in vivo, rat; settings: TAC alone, 90 days, with respect to isograft controls
Description: as §1, §2, §4

p22phox protein = experiment: intragraft p22phox protein by Western blot, TAC study; assay type: in vivo, rat; settings: TAC compared to untreated allografts and isograft controls; monohydrate
Description: (§5) Frozen tissues were homogenized in ice-cold PBS with 1% Triton X-100, 1 mM phenylmethysulfonyl fluoride, 35 ng/ml pepstatin A and 10 ng/ml leupeptin. After centrifugation, 50 μg: of protein was electrophoresed by SDS PAGE as described in Khanna et al. (2005) Nephron Exp. Nephrol., 101:119-126. Blots were probed with appropriate dilutions of a polyclonal anti-p22phox antibody (RS554, a gift from Marsh Lab, Bozeman, Mont.) or anti-NOX antibody (Santa Cruz Biotechnology, Santa Cruz, Calif.), incubated with a horseradish peroxidase-conjugated secondary antibody at a 1:5,000 dilution, and visualized by enhanced chemiluminescence.
(§6) Expression of p22^phox and NOX-1 proteins was analyzed in kidney tissues from isografts, untreated allografts, and animals treated with TAC. Protein lysates (10 μg) were electrophoresed, transferred to nitrocellulose paper and probed with anti-p22^phox and anti NOX-1 antibodies.

NOX-1 protein = experiment: intragraft NOX-1 protein by Western blot, TAC study; assay type: in vivo, rat; settings: TAC compared to untreated allografts and isograft controls; monohydrate
Description: as §5, §6

NOX-1 mRNA = experiment: intrarenal NOX-1 mRNA by real-time PCR, TAC study; assay type: in vivo, rat; settings: TAC alone, 90 days, with respect to isograft controls
Description: as §1, §2, §4

TGF-β = settings: cited from earlier work

Compound | renal histological changes (H&E, PAS) (renal transplant) | intrarenal staining for TGF-β protein (TGF-β protein) | decrease in intrarenal SOD mRNA expression (SOD mRNA) | increase in intrarenal TGF-β mRNA expression (TGF-β mRNA) | increase in intrarenal RAC-1 mRNA expression (RAC-1 mRNA) | decrease in intrarenal TRX mRNA expression (TRX mRNA) | increase in intrarenal p22phox mRNA expression (p22phox mRNA) | intragraft expression of p22phox protein (p22phox protein) | intragraft expression of NOX-1 protein (NOX-1 protein) | increase in intrarenal NOX-1 mRNA expression (NOX-1 mRNA) | Kd (TGF-β; approximately, binds TGF-β1 only, read-out: antigen affinity) | TGF-β isoform binding specificity (TGF-β; mammalian isoforms of TGF-β)
C=CC[C@@H]1/C=C(\C)C[C@H](C)C[C@H](OC)[C@H]2O[C@@](O)(C(=O)C(=O)N3CCCC[C@H]3C(=O)O[C@H](/C(C)=C/[C@@H]3CC[C@@H](O)[C@H](OC)C3)[C@H](C)[C@@H](O)CC1=O)[C@H](C)C[C@@H]2OC (relative stereo) [TAC, [3S-[3R*[E (1S*,3S*,4S*)], 4S*,5R*,8S*,9E, 12R*,14R*,15S*,16R*,18S*,19S*,26aR*]]-5,6,8,11,12,13,14,15,16,17,18,19,24,25,26,26a-hexadecahydro-5,19-dihydroxy-3-[2-(4-hydroxy-3-methoxycyclohexyl)-1-methylethenyl]-14,16-dimethoxy-4,10,12,18-tetramethyl-8-(2-propenyl)-15,19-epoxy-3H-pyrido[2,1-c][1,4]oxaazacyclotricosine-1,7,20,21 (4H,23H)-tetrone, monohydrate] | marked histological changes; also recorded: statistically significant (p<0.036) difference | increased staining for TGF-β protein | 27 fold | 37 fold | 20 fold | 80 fold | 31 fold | increased intragraft expression; also recorded: elevated | increased intragraft expression; also recorded: elevated | 18 fold |  | 
CAT192: fully human recombinant anti-TGF-β antibody generated by phage display; specifically binds TGF-β1 only |  |  |  |  |  |  |  |  |  |  | ~8.4 pM | specifically binds TGF-β1 only
